In patent US6777229B1, “Plasmids from Corynebacterium glutamicum and use thereof” (Degussa AG, priority 1999, dated 2004):

Assays:
Assay in all cases: Minimum inhibition concentration, NCCLS Approved Standard M7-A4 dilution test
Type in all cases: cell-based
[1] = test system: Corynebacterium glutamicum ATCC13032; settings: strain ATCC13032 (sensitive control), MÜLLER-HINTON bouillon
Text: (§1) In order to identify antibiotic resistance genes on new plasmids, the strain to be investigated, in the present case Corynebacterium glutamicum LP-6, and a sensitive control strain, in the present case Corynebacterium glutamicum ATCC13032, are initially tested for resistance or sensitivity to various antibiotics and concentrations of antibiotics. […] Using the method of “Approved Standard M7-A4”, it is possible to determine inhibition concentrations and thus to ascertain the resistance of the investigated strain of bacteria.
(§2) In order to identify antibiotic resistance regions on the novel plasmids pTET3 or pCRY4, the resistant test strain Corynebacterium glutamicum LP-6 and the sensitive control strain Corynebacterium glutamicum ATCC13032 were initially cultured in the presence and absence of various antibiotics and antibiotic concentrations in accordance with the experimental method of the National Committee of Clinical Laboratory Standards (National Committee of Clinical Laboratory Standards, Methods for dilution antimicrobial susceptibility tests for bacteria that grow aerobically; Approved Standard, M7-A4 (1997)). The antibiotics required for this test, inter alia the antibiotics tetracycline, spectinomycin, streptomycin and sulfamethoxazole, were obtained from Sigma-Aldrich Chemie GmbH (Deisenhofen, Germany) and used in the concentrations stated in “Approved Standard M7-A4”. The nutrient medium required for this test, “MÖLLER-HINTON bouillon” was obtained from Merck KGaA (Darmstadt, Germany) and used in accordance with the manufacturer's instructions. Using the method of “Approved Standard M7-A4”, it is possible to determine inhibition concentrations (Table 1) and to identify the resistance of the bacterial strain Corynebacterium glutamicum LP-6 to the antibiotics tetracycline, spectinomycin, streptomycin and sulfamethoxazole. Plasmid DNA isolated from Corynebacterium glutamicum LP-6 using an alkaline lysis method (“NucleoBond Nucleic Acid Purification Kits and Cartridges User Manual (PT3167-1)”, Clonetech Laboratories GmbH, Heidelberg, Germany, 1997) was then transferred with electrical assistance into Corynebacterium glutamicum ATCC13032. Selection was performed directly for the presence of the identified tetracycline resistance in the primary selection on LB agar containing 5 μg/ml of tetracycline. […] The transformed strain was named Corynebacterium glutamicum ATCC13032 [pTET3].

[2] = test system: Corynebacterium glutamicum LP-6; settings: strain LP-6 (resistant test strain)
Text: as §1, §2

[3] = test system: Corynebacterium glutamicum ATCC13032 [pTET3]; settings: strain ATCC13032 [pTET3]
Text: In order to identify antibiotic resistance genes on new plasmids, the strain to be investigated, in the present case Corynebacterium glutamicum LP-6, and a sensitive control strain, in the present case Corynebacterium glutamicum ATCC13032, are initially tested for resistance or sensitivity to various antibiotics and concentrations of antibiotics. The National Committee of Clinical Laboratory Standards (NCCLS) experimental procedure is preferably used for this purpose (“Methods for dilution antimicrobial susceptibility tests for bacteria that grow aerobically”, fourth edition; Approved Standard, M7-A4, NCCLS 17(2), (1997)). Using the method of “Approved Standard M7-A4”, it is possible to determine inhibition concentrations and thus to ascertain the resistance of the investigated strain of bacteria.
The plasmid to be investigated, in the present case pTET3, is then isolated from strain LP-6 as described above and used to transform a suitable control or indicator strain, in the present case strain ATCC13032. Methods for transforming coryneform bacteria are described, for example, in Thierbach et al. ([…] 29, 356-362 (1988)), in Liebl et al. (FEMS Microbiology Letters 65, 299-304 (1989)) or in Dunican et al. (Bio/Technology 7, 1067-1070 (1989)). Selection is performed on conventional, complex nutrient media, such as for example brain-heart bouillon or Luria-Bertani medium, which are supplemented with the appropriate antibiotics. The antibiotic and the concentration thereof for this selection process is determined on the basis of the above-mentioned “Approved Standard, M7-A4”. In this manner, strain ATCC13032[pTET3], is obtained by selection for tetracycline resistance. The resistance/sensitivity of strain ATCC13032[pTET3) and of the control strain ATCC13032 is then investigated using the above-mentioned method, yielding the result that strain ATCC13032[pTET3] is resistant to the antibiotics tetracycline, streptomycin, spectinomycin and sulfamethoxazole.
In order to identify antibiotic resistance regions on the novel plasmids pTET3 or pCRY4, the resistant test strain Corynebacterium glutamicum LP-6 and the sensitive control strain Corynebacterium glutamicum ATCC13032 were initially cultured in the presence and absence of various antibiotics and antibiotic concentrations in accordance with the experimental method of the National Committee of Clinical Laboratory Standards (National Committee of Clinical Laboratory Standards, Methods for dilution antimicrobial susceptibility tests for bacteria that grow aerobically; Approved Standard, M7-A4 (1997)). […]

Row | SMILES | Minimum inhibition concentration [1] | Minimum inhibition concentration [2] | Minimum inhibition concentration [3]
1 | CN[C@@H]1[C@H](O)[C@H](NC)[C@H]2O[C@@]3(O)C(=O)C[C@@H](C)O[C@H]3O[C@@H]2[C@H]1O [Spectinomycin] | ≦50 μg of antibiotic per ml | >2000 μg of antibiotic per ml | >2000 μg of antibiotic per ml
2 | [H]/N=C(/N)N[C@H]1[C@H](O)[C@@H](O)[C@H](O[C@@H]2O[C@@H](C)[C@](O)(C=O)[C@H]2O[C@@H]2O[C@@H](CO)[C@H](O)[C@@H](O)[C@@H]2NC)[C@@H](N/C(N)=N\[H])[C@@H]1O [Streptotmycin] | ≦0.5 μg of antibiotic per ml | ≦100 μg of antibiotic per ml | ≦100 μg of antibiotic per ml
3 | Cc1cc(NS(=O)(=O)c2ccc(N)cc2)no1 [Sulfamethoxazole] | ≦150 μg of antibiotic per ml | ≦300 μg of antibiotic per ml | ≦300 μg of antibiotic per ml
4 | CN(C)[C@@H]1C(O)=C(C(N)=O)C(=O)[C@@]2(O)C(O)=C3C(=O)c4c(O)cccc4[C@@](C)(O)[C@H]3C[C@@H]12 [Tetracycline] | ≦0.75 μg of antibiotic per ml | ≦12 μg of antibiotic per ml | ≦12 μg of antibiotic per ml
